Values of other authors as cited in patent US11786452B2, “Method for dyeing keratinous material” (Henkel AG & Co. KGaA, priority 2019, dated 2023).

Details: 25° C.

solubility in water | Compound
more than 20 % by weight | CCN(Cc1cccc(S(=O)(=O)[O-])c1)c1ccc(C(=C2C=CC(=[N+](CC)Cc3cccc(S(=O)(=O)[O-])c3)C=C2)c2ccccc2S(=O)(=O)[O-])cc1.[Na+].[Na+] [Acid Blue 9]
highly soluble | O=C([O-])C1=NN(c2ccc(S(=O)(=O)[O-])cc2)C(=O)C1N=Nc1ccc(S(=O)(=O)[O-])cc1.[Na+].[Na+].[Na+] (centres unmarked) [Acid Yellow 23, trisodium salt of 4,5-dihydro-5-oxo-1-(4-sulfophenyl)-4-((4-sulfophenyl)azo)-1H-pyrazole-3-carboxylic acid]
2500 µg/mL | Nc1cc(S(=O)(=O)[O-])cc2cc(S(=O)(=O)[O-])c(N=Nc3ccccc3)c(O)c12.[Na+].[Na+] [Acid Red 33, diantrium salt of 5-amino-4-hydroxy-3-(phenylazo)-naphthalene-2,7-disulphonate]

Compound | solubility in water
O=C([O-])c1c(Cl)c(Cl)c(Cl)c(Cl)c1-c1c2c(Br)cc(=O)c(Br)c-2oc2c(Br)c(O)cc(Br)c12.O=C([O-])c1c(Cl)c(Cl)c(Cl)c(Cl)c1-c1c2c(Br)cc(=O)c(Br)c-2oc2c(Br)c(O)cc(Br)c12.[Na+].[Na+] [Acid Red 92, disodium salt of 3,4,5,6-tetrachloro-2-(1,4,5,8-tetrabromo-6-hydroxy-3-oxoxanthen-9-yl)benzoic acid] | greater than 10 g/L
O=S(=O)([O-])c1ccc(N=Nc2c(O)ccc3ccccc23)cc1.[Na+] [Acid Orange 7, sodium salt of 4-[(2-hydroxy-1-naphthyl)azo]benzene sulphonate] | more than 7 g/L
